Measured values from patent publication US11319299B2, “Substituted carboxamides as inhibitors of WDR5 protein-protein binding” (PROPELLON THERAPEUTICS INC., priority 2016, dated 2022).

Tests used:
[1] = tested on: H3K4 dimethylation (H3K4me2) in T24 cells; experiment: Detection of in-cell H3K4 dimethylation (AlphaLisa); format: cell-based; settings: Homo sapiens, T-24, 120 h, five days, read-out: In vitro whole cell potency in T24 cells, H3K4Me2 (IC50)
Procedure: (iii) Detection of In-Cell H3K4 Dimethylation
T24 cells were seeded into a 96-well plate at 400 cells/well in 150 μl medium (McCoy 5A containing 10% FBS, 100 μg/ml Normocin, and 50 μg/ml Gentamycin, Invitrogen). A HP D300 digital dispenser was used to dose cells with DMSO or test compounds across a 10-point range of concentrations (high dose of 10 μM), and cultures were grown in a humidified 5% CO2 incubator at 37° C. After five days, plates were removed from incubator, media was aspirated, and the cells washed in PBS. Cell lysis, histone extraction, and detection of H3K4 dimethylation (H3K4me2) were performed using an AlphaLisa kit according to the manufacturer's instructions (Perkin Elmer). Signal was measured using an Envision plate reader.

[2] = tested on: MV4-11 cells; experiment: Cell proliferation assay (ATPlite); format: cell-based; settings: Homo sapiens, MV4-11, 120 h; MV-411 cells, five days; read-out: In vitro whole cell potency in MV-411 cells, (IC50)
Procedure, shortened: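 Read-out is ATP-based luminescence (ATPlite) after 5 days of culture at 37° C under 5% CO2. Compounds were given as 10-point dilutions starting at 10 μM to MV4-11 cells, seeded at 1,000 cells/well in Alpha-MEM plus 10% FBS.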

[3] = biological target: T1, WDR5 (Homo sapiens (Human), UniProt P61964); experiment: Surface Plasmon Resonance (SPR) assay, KD and residence time; format: binding; settings: surface plasmon resonance (SPR); read-out: WDR5 binding affinity (KD)
[4] = biological target: T1, WDR5; settings: previous studies, J. Med. Chem. 2010, 53: 5179-5185; J. Am. Chem. Soc. 2013, 135: 669-682; read-out: Ki, binding affinity to WDR5; cited from earlier work

Compound	IC50 [1] [nM]	IC50 [2] [nM]	Kd [3] [nM]	Ki [4] [µM]
CN1CCN(c2cc(F)c(-c3cnc(N4CCOCC4)nc3)cc2NC(=O)c2c[nH]c(=O)cc2C(F)(F)F)CC1 [Example 3, N-(4-fluoro-2-(4-methylpiperazin-1-yl)-5-(2-morpholinopyrimidin-5-yl)phenyl)-6-oxo-4-(trifluoromethyl)-1,6-dihydropyridine-3-carboxamide]	882	749		
C[C@@H]1CN(c2cc(F)c(-c3cnc(N4CCOCC4)nc3)cc2NC(=O)c2c[nH]c(=O)cc2C(F)(F)F)CCN1C [Example 6, (R)—N-(2-(3,4-dimethylpiperazin-1-yl)-4-fluoro-5-(2-morpholinopyrimidin-5-yl)phenyl)-6-oxo-4-(trifluoromethyl)-1,6-dihydropyridine-3-carboxamide]	1070	828		
C[C@@H]1CN(c2cc(F)c(-c3cnc(N4CCOCC4)nc3)cc2NC(=O)c2c[nH]c(=O)cc2C(F)(F)F)C[C@H](C)N1C [Example 8, N-(4-fluoro-5-(2-morpholinopyrimidin-5-yl)-2-((3R,5S)-3,4,5-trimethylpiperazin-1-yl)phenyl)-6-oxo-4-(trifluoromethyl)-1,6-dihydropyridine-3-carboxamide]	144			
C[C@@H]1CN(c2cc(F)c(-c3ccc(OCC4CC4)nc3)cc2NC(=O)c2c[nH]c(=O)cc2C(F)(F)F)C[C@H](C)N1C [Example 39, N-[5-[6-(cyclopropylmethoxy)pyridin-3-yl]-4-fluoro-2-[(3S,5R)-3,4,5-trimethylpiperazin-1-yl]phenyl]-6-oxo-4-(trifluoromethyl)-1H-pyridine-3-carboxamide]	626	213		
C[C@@H]1CN(c2cc(F)c(C3=CCN(C(=O)OC4(C)CCC4)CC3)cc2NC(=O)c2c[nH]c(=O)cc2C(F)(F)F)C[C@H](C)N1C [Example 470, (1-methylcyclobutyl) 4-[2-fluoro-5-[[6-oxo-4-(trifluoromethyl)-1H-pyridine-3-carbonyl]amino]-4-[(3R,5S)-3,4,5-trimethylpiperazin-1-yl]phenyl]-3,6-dihydro-2H-pyridine-1-carboxylate]		56	4.27	
C[C@@H]1CN(c2cc(F)c(C3=CCCN(C(=O)OC4(C)CCC4)C3)cc2NC(=O)c2c[nH]c(=O)cc2C(F)(F)F)C[C@H](C)N1C [Example 471, (1-methylcyclobutyl) 5-[2-fluoro-5-[[6-oxo-4-(trifluoromethyl)-1H-pyridine-3-carbonyl]amino]-4-[(3R,5S)-3,4,5-trimethylpiperazin-1-yl]phenyl]-3,6-dihydro-2H-pyridine-1-carboxylate]		78	0.494	
C[C@@H]1CN(c2cc(F)c(-c3nc(C(=O)N(C)CC4CC4)cs3)cc2NC(=O)c2c[nH]c(=O)cc2C(F)(F)F)C[C@H](C)N1C [Example 483, N-(cyclopropylmethyl)-2-[2-fluoro-5-[[6-oxo-4-(trifluoromethyl)-1H-pyridine-3-carbonyl]amino]-4-[(3R,5S)-3,4,5-trimethylpiperazin-1-yl]phenyl]-N-methyl-1,3-thiazole-4-carboxamide]		24	3.97	
CC(C)OC(=O)N1CC=C(c2cc(NC(=O)c3c[nH]c(=O)cc3C(F)(F)F)c(N3C[C@@H](C)N(C)[C@@H](C)C3)cc2F)C1 [Example 600, Propan-2-yl 3-[2-fluoro-5-[[6-oxo-4-(trifluoromethyl)-1H-pyridine-3-carbonyl]amino]-4-[(3R,5S)-3,4,5-trimethylpiperazin-1-yl]phenyl]-2,5-dihydropyrrole-1-carboxylate]		52	0.779	
Ac-A-R-A-NH2				120

More lines, in order of falling IC50 [2], values ahead:

IC50 [1] [nM]	IC50 [2] [nM]	Kd [3] [nM]	Compound	Ki [4] [µM]
	104	0.407	C[C@@H]1CN(c2cc(F)c(C3=CCN(C(=O)OC4(C)CCC4)C3)cc2NC(=O)c2c[nH]c(=O)cc2C(F)(F)F)C[C@H](C)N1C [Example 472, (1-methylcyclobutyl) 3-[2-fluoro-5-[[6-oxo-4-(trifluoromethyl)-1H-pyridine-3-carbonyl]amino]-4-[(3R,5S)-3,4,5-trimethylpiperazin-1-yl]phenyl]-2,5-dihydropyrrole-1-carboxylate]	
	73	2.66	C[C@@H]1CN(c2ccc(-c3cc(NC(=O)c4c[nH]c(=O)cc4C(F)F)c(N4C[C@@H](C)N(C)[C@@H](C)C4)cc3F)cn2)CCO1 [Example 508, 4-(difluoromethyl)-N-[4-fluoro-5-[6-[(2R)-2-methylmorpholin-4-yl]pyridin-3-yl]-2-[(3R,5S)-3,4,5-trimethylpiperazin-1-yl]phenyl]-6-oxo-1H-pyridine-3-carboxamide]	
166	51		C[C@H]1CN(c2cc(F)c(-c3cnc(N4CCOCC4)nc3)cc2NC(=O)c2c[nH]c(=O)cc2C(F)(F)F)CCN1C [Example 7, (S)—N-(2-(3,4-dimethylpiperazin-1-yl)-4-fluoro-5-(2-morpholinopyrimidin-5-yl)phenyl)-6-oxo-4-(trifluoromethyl)-1,6-dihydropyridine-3-carboxamide]	
	22	0.694	C[C@@H]1CN(c2cc(F)c(-c3csc(C(=O)N(C)CC4CC4)n3)cc2NC(=O)c2c[nH]c(=O)cc2C(F)(F)F)C[C@H](C)N1C [Example 532, N-(cyclopropylmethyl)-4-[2-fluoro-5-[[6-oxo-4-(trifluoromethyl)-1H-pyridine-3-carbonyl]amino]-4-[(3R,5S)-3,4,5-trimethylpiperazin-1-yl]phenyl]-N-methyl-1,3-thiazole-2-carboxamide]	
